Here are results for 1 compound from US9574189B2, “Enzymatic encoding methods for efficient synthesis of large libraries” (Nuevolution A/S, priority 2005, dated 2017).

In the assay the target is T1, human alpha-thrombin (Homo sapiens, UniProt P00734).
T1 construct: purchased Heamatologic Technologies Inc
Kind of assay: Ki of released display molecule against thrombin, chromogenic substrate S-2238. Format: biochemical. The following applies: display molecule released by UV cleavage; 5 min incubation at 22° C.; nonlinear regression of Vmax; 95% confidence interval 0-13 nM. As for the experimental part: To determine the Ki of the released display molecule against the protease thrombin, human alpha-thrombin (Heamatologic Technologies Inc.) was diluted in buffer (0.015 units/μl) and the released display molecule was added. Following 5 minutes of incubation at 22° C. a chromogenic substrate (Chromogenix catalogue number S-2238) was added and the maximum turnover (Vmax) of the enzyme was determined in a by measuring the change in absorbance at 405 nm using a Versamax reader (Molecular Devices). This was repeated for different concentrations of the released display molecule and different concentrations of substrate. The Vmax values obtained were then fitted using nonlinear regression implemented in the Prism software (Graphpad) to obtain the Ki of the display molecule.

As a reminder, the Ki is the dissociation constant of the complex between target and ligand, obtained from inhibition or displacement. With `NC(=O)COc1ccc(Cl)cc1CNC(=O)[C@H]1CCCN1C(=O)[C@@H](N)C1CCCCC1`, the Ki amounted to 5.2 nM.
